Like-named read-outs stand apart in the source and are kept apart here. Where a SMILES comes first, the peptide text is derived from it. Bridges are numbered along the chain shown (N, C = ends). [ ]: non-standard residue; d: D form. The star is where a group is joined. Ileψ(thiazoline)Cys = CC[C@H](C)[C@H](N)C1=N[C@H](C(=O)*)CS1; dOrn = NCCC[C@@H](N)C(=O)O
Columns and labels:
[1] = tested on: P. falciparum 3D7 parasites; assay: P. falciparum growth inhibition assay, 1-cycle (72 h treatment), SYBR DNA staining (library screen at 2 μg/mL and dose-response); type: cell-based, Plasmodium falciparum; settings: for activity at 2 µg/mL: Plasmodium falciparum
[2] = tested on: P. falciparum 3D7 parasites; assay: P. falciparum growth inhibition assay, 2-cycle (120 h treatment), delayed-death screen and dose-response; type: cell-based, Plasmodium falciparum; settings: for activity at 2 µg/mL: Plasmodium falciparum
[3] = tested on: T. gondii RH strain (RH-Tub-eYFP) tachyzoites; assay: microbe, parasite or virus in culture; type: cell-based, Toxoplasma gondii
[4] = 3D7, P. falciparum, 72 h, screen at 2 μg/mL, replicate 1, read-out: Pf_72h_%Growth_Rep1
[5] = 3D7, P. falciparum, 72 h, screen at 2 μg/mL, replicate 2, read-out: Pf_72h_%Growth_Rep2
[6] = 3D7, P. falciparum, 120 h, screen at 2 μg/mL, replicate 1, read-out: Pf_120h_%Growth_Rep1
[7] = 3D7, P. falciparum, 120 h, screen at 2 μg/mL, replicate 2, read-out: Pf_120h_%Growth_Rep2
[8] = library screen at 2 μg/mL, 72 h, % growth, replicate 1
[9] = library screen at 2 μg/mL, 72 h, % growth, replicate 2
[10] = library screen at 2 μg/mL, 120 h, % growth, replicate 1
[11] = library screen at 2 μg/mL, 120 h, % growth, replicate 2
[12] = Toxoplasma gondii, 72 h, library screen at 2 μg/mL, 72 h, % growth, replicate 1; read-out: Tg_72h_%Growth_Rep1
[13] = Toxoplasma gondii, 72 h, library screen at 2 μg/mL, 72 h, % growth, replicate 2; read-out: Tg_72h_%Growth_Rep2

COc1c(C[C@@H](C)OC(=O)Oc2ccc(O)cc2)c2c3c(C[C@@H](C)OC(=O)c4ccccc4)c(OC)c(=O)c4c(O)cc(OC)c(c5c(OC)cc(O)c(c1=O)c52)c43 [Calphostin C]
activity at 2 µg/mL [1, 4]: 13.6% | activity at 2 µg/mL [1, 5]: 9.2% | activity at 2 µg/mL [2, 6]: 17% | activity at 2 µg/mL [2, 7]: 9.44% | percent parasite growth at 2 µg/mL ([3]; Toxoplasma gondii; T. gondii, 72 h, screen at 2 μg/mL, replicate 1; read-out: Tg_72h_%Growth_Rep1): 1% | percent parasite growth at 2 µg/mL ([3]; Toxoplasma gondii; T. gondii, 72 h, screen at 2 μg/mL, replicate 2; read-out: Tg_72h_%Growth_Rep2): 2.07%

CNC1CC2OC(C)(C1OC)n1c3ccccc3c3c4c(c5c6ccccc6n2c5c31)C(=O)NC4=O (stereo not drawn) [BIA-O1137]
Pf_72h_%Growth_Rep1 ([1]; P. falciparum 3D7, 72 h, parasite screen at 2 μg/mL, % growth, replicate 1): 5.55% | Pf_72h_%Growth_Rep2 ([1]; P. falciparum 3D7, 72 h, parasite screen at 2 μg/mL, % growth, replicate 2): 3.48% | Pf_120h_%Growth_Rep1 ([2]; P. falciparum 3D7, 120 h, parasite screen at 2 μg/mL, % growth, replicate 1): 5.90% | Pf_120h_%Growth_Rep2 ([2]; P. falciparum 3D7, 120 h, parasite screen at 2 μg/mL, % growth, replicate 2): 15.39% | Tg_72h_%Growth_Rep1 ([3]; T. gondii, 72 h, parasite screen at 2 μg/mL, % growth, replicate 1): 57.26% | Tg_72h_%Growth_Rep2 ([3]; T. gondii, 72 h, parasite screen at 2 μg/mL, % growth, replicate 2): 18.54%

O=C1N[C@@H](Cc2ccc(O)cc2)C(=O)N2CCC[C@@H]12 [Cyclo(L-Pro-L-Tyr)]
Pf_72h_%Growth_Rep1 ([1]; P. falciparum, 72 h, screen at 2 μg/mL, replicate 1): 91.38% | Pf_72h_%Growth_Rep2 ([1]; P. falciparum, 72 h, screen at 2 μg/mL, replicate 2): 88.30% | Pf_120h_%Growth_Rep1 ([2]; P. falciparum, 120 h, screen at 2 μg/mL, replicate 1): 89.64% | Pf_120h_%Growth_Rep2 ([2]; P. falciparum, 120 h, screen at 2 μg/mL, replicate 2): 119.86% | Tg_72h_%Growth_Rep1 ([3]; T. gondii, 72 h, screen at 2 μg/mL, replicate 1): 132.28% | Tg_72h_%Growth_Rep2 ([3]; T. gondii, 72 h, screen at 2 μg/mL, replicate 2): 86.77%

COC(=O)[C@@]12C(=O)C(C)C(=O)[C@]1(C)C(C)=C[C@H]1[C@]3(C=O)CC[C@H](OC(C)=O)C(C)(C)[C@H]3CC[C@@]12C (stereo partly drawn) [Andrastin A]
Pf_72h_%Growth_Rep1 [1, 8]: 79.79% | Pf_72h_%Growth_Rep2 [1, 9]: 84.23% | Pf_120h_%Growth_Rep1 [2, 10]: 133.36% | Pf_120h_%Growth_Rep2 [2, 11]: 82.36% | Tg_72h_%Growth_Rep1 [3, 8]: 90.21% | Tg_72h_%Growth_Rep2 [3, 9]: 88.06%

C=C(NC(=O)C(=C)NC(=O)c1ccc2c(n1)-c1coc(n1)C(=C)NC(=O)C(=C)NC(=O)c1nc(oc1C)C(=C)NC(=O)C(C(C)(C)O)NC(=O)C(=C)NC(=O)c1coc(n1)/C(=C/C)NC(=O)[C@H]([C@@H](C)O)NC(=O)c1csc-2n1)C(N)=O (stereo partly drawn) [Geninthiocin]
Pf_72h_%Growth_Rep1 [1, 8]: 87.80% | Pf_72h_%Growth_Rep2 [1, 9]: 33.98% | Pf_120h_%Growth_Rep1 [2, 10]: 87.82% | Pf_120h_%Growth_Rep2 [2, 11]: 106.01% | Tg_72h_%Growth_Rep1 [3, 8]: 124.28% | Tg_72h_%Growth_Rep2 [3, 9]: 90.80%

CCC(=O)CCCCC[C@@H]1NC(=O)[C@H]2CCCCN2C(=O)[C@H]([C@@H](C)CC)NC(=O)[C@H](Cc2cn(OC)c3ccccc23)NC1=O [Apicidin]
activity at 2 µg/mL ([1]; 3D7, 72 h, library screen at 2 μg/mL, 72 h, % growth, replicate 1, read-out: Pf_72h_%Growth_Rep1): 1.42% | activity at 2 µg/mL ([1]; 3D7, 72 h, library screen at 2 μg/mL, 72 h, % growth, replicate 2, read-out: Pf_72h_%Growth_Rep2): 5.38% | activity at 2 µg/mL ([2]; 3D7, 120 h, library screen at 2 μg/mL, 120 h, % growth, replicate 1, read-out: Pf_120h_%Growth_Rep1): 2.31% | activity at 2 µg/mL ([2]; 3D7, 120 h, library screen at 2 μg/mL, 120 h, % growth, replicate 2, read-out: Pf_120h_%Growth_Rep2): -15.8% | percent parasite growth at 2 µg/mL [3, 12]: 6.14% | percent parasite growth at 2 µg/mL [3, 13]: 0.42%

Nc1ncnc2c1ncn2[C@@H]1O[C@H](CO)C[C@H]1O [Cordycepin]
activity at 2 µg/mL [1, 4]: 22.1% | activity at 2 µg/mL [1, 5]: 11.8% | activity at 2 µg/mL [2, 6]: 24.5% | activity at 2 µg/mL [2, 7]: 12.4% | percent parasite growth at 2 µg/mL ([3]; Toxoplasma gondii, 72 h, T. gondii, 72 h, screen at 2 μg/mL, replicate 1; read-out: Tg_72h_%Growth_Rep1): 80% | percent parasite growth at 2 µg/mL ([3]; Toxoplasma gondii, 72 h, T. gondii, 72 h, screen at 2 μg/mL, replicate 2; read-out: Tg_72h_%Growth_Rep2): 99.7%

CC[C@H](C)[C@H](N)C1=N[C@H](C(=O)N[C@@H](CC(C)C)C(=O)N[C@H](CCC(=O)O)C(=O)N[C@H](C(=O)N[C@H]2CCCCNC(=O)[C@H](CC(N)=O)NC(=O)[C@@H](CC(=O)O)NC(=O)[C@H](Cc3cnc[nH]3)NC(=O)[C@@H](Cc3ccccc3)NC(=O)[C@H]([C@@H](C)CC)NC(=O)[C@@H](CCCN)NC2=O)[C@@H](C)CC)CS1 [Bacitracin A] ({Ileψ(thiazoline)Cys}-L[dE]IK[dOrn]I[dF]H[dD]N; lactam 4-C)
activity at 2 µg/mL ([1]; 3D7, library screen at 2 μg/mL, 72 h, % growth, replicate 1, read-out: Pf_72h_%Growth_Rep1): 27.2% | activity at 2 µg/mL ([1]; 3D7, library screen at 2 μg/mL, 72 h, % growth, replicate 2, read-out: Pf_72h_%Growth_Rep2): 89.3% | activity at 2 µg/mL ([2]; 3D7, library screen at 2 μg/mL, 120 h, % growth, replicate 1, read-out: Pf_120h_%Growth_Rep1): 59.9% | activity at 2 µg/mL ([2]; 3D7, library screen at 2 μg/mL, 120 h, % growth, replicate 2, read-out: Pf_120h_%Growth_Rep2): 94.6% | percent parasite growth at 2 µg/mL [3, 12]: 81.4% | percent parasite growth at 2 µg/mL [3, 13]: 89.8%
